Measurements from ChEMBL document CHEMBL1212896, “Discovery of novel cyanodihydropyridines as potent mineralocorticoid receptor antagonists” (J Med Chem, 2010).
pIC50: −log10 of the molar value. Values after ≈ are worked out from the molar mass of the structure shown.

Assays:
Glucocorticoid receptor = molecular target: T1, Glucocorticoid receptor (Homo sapiens, UniProt P04150); experiment: Antagonist activity at glucocorticoid receptor LBD expressed in human HUH7 cells coexpressing GAL4 by luciferase reporter gene assay; type: functional, cell-based, Huh-7
T1 sequence (P04150 whole entry): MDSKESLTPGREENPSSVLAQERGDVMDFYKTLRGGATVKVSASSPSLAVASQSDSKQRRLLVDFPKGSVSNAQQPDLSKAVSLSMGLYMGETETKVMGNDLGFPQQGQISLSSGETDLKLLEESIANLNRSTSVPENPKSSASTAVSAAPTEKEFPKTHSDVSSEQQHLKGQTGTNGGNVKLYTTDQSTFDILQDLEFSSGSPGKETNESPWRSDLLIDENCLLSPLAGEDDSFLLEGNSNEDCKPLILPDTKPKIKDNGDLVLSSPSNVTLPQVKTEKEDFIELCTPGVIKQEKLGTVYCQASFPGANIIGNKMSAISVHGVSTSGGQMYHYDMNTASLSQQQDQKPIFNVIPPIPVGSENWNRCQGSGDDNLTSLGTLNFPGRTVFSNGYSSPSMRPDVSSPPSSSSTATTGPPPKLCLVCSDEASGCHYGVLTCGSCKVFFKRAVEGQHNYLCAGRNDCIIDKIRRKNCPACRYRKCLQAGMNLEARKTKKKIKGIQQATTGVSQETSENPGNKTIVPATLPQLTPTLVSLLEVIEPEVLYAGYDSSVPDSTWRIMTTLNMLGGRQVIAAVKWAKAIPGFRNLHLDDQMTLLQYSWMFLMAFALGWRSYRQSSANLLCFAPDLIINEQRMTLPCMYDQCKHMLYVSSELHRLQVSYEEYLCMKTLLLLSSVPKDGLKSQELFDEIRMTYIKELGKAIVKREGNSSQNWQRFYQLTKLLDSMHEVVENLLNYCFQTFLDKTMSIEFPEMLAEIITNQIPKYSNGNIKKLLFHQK

Androgen receptor = molecular target: T2, Androgen receptor (Homo sapiens, UniProt P10275); experiment: Antagonist activity at androgen receptor LBD expressed in human HUH7 cells coexpressing GAL4 by luciferase reporter gene assay; type: functional, cell-based, Huh-7
T2 sequence (P10275 whole entry): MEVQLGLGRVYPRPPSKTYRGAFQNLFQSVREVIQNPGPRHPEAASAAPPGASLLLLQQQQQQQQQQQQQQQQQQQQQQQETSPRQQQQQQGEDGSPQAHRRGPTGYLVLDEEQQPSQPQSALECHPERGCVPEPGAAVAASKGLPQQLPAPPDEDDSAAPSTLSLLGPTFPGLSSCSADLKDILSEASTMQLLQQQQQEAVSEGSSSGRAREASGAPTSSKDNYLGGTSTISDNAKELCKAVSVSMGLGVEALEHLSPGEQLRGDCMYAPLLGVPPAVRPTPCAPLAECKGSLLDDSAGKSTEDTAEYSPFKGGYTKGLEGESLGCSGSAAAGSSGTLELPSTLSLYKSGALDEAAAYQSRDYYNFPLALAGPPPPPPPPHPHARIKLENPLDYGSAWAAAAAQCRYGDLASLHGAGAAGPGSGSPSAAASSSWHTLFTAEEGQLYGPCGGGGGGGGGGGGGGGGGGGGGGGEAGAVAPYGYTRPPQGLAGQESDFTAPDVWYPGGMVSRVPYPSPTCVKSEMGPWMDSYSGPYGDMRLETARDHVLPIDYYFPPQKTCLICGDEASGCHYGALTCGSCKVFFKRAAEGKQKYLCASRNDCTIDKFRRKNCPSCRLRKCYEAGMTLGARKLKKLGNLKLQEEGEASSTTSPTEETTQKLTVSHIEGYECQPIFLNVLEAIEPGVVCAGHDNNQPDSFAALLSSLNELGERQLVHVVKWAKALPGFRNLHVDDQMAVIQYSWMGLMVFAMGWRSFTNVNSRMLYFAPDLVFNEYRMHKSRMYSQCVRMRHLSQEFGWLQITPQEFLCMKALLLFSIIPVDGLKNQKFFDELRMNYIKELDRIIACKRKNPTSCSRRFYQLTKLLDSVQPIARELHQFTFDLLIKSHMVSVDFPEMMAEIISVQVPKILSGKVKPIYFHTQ

Liver microsomes [1] = experiment: Metabolic stability in human liver microsomes assessed as compound remaining; type: ADME, Microsome; also: time not given here
Liver microsomes [2] = experiment: Metabolic stability in rat liver microsomes assessed as compound remaining; type: ADME, Microsome; also: time not given here
Cytochrome P450 3A4 = Cytochrome P450 3A4 (Homo sapiens, UniProt P08684); experiment: Inhibition of CYP3A4; type: ADME
Cytochrome P450 2C9 = Cytochrome P450 2C9 (Homo sapiens, UniProt P11712); experiment: Inhibition of CYP2C9; type: ADME
Cytochrome P450 2D6 = Cytochrome P450 2D6 (Homo sapiens, UniProt P10635); experiment: Inhibition of CYP2D6; type: ADME
[3] = Solubility of the compound; type: physicochemical
[4] = molecular target: T3, Mineralocorticoid receptor (Homo sapiens, UniProt P08235)
T3 sequence (P08235 whole entry): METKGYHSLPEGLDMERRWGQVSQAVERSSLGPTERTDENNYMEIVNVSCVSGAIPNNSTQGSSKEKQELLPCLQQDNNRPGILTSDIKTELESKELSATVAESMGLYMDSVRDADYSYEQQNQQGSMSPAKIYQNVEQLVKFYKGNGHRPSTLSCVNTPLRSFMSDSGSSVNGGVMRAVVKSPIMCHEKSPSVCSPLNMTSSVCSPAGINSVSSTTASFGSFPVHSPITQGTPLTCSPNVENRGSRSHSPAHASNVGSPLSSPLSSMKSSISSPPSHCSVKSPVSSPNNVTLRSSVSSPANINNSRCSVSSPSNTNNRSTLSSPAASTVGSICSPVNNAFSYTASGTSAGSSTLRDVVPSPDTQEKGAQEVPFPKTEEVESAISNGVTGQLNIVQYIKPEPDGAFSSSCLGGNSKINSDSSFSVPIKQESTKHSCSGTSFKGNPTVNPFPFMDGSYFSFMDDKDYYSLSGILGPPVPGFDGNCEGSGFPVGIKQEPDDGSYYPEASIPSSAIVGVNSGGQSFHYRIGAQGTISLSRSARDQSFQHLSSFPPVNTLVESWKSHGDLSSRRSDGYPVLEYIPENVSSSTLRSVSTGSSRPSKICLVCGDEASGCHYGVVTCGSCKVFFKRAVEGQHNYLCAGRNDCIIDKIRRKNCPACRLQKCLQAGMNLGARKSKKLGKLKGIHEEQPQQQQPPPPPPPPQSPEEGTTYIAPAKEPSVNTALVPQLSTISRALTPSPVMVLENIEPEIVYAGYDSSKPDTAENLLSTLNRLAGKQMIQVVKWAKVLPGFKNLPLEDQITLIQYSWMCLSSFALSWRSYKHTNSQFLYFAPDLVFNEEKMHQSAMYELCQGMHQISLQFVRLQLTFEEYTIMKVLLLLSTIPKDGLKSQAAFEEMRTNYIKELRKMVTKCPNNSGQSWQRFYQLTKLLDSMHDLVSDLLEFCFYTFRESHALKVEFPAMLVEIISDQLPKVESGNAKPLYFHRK
Description: Antagonist activity at mineralocorticoid receptor LBD expressed in human HUH7 cells coexpressing GAL4 by luciferase reporter gene assay

Cytochrome P450 2C9, sequence (P11712 whole entry): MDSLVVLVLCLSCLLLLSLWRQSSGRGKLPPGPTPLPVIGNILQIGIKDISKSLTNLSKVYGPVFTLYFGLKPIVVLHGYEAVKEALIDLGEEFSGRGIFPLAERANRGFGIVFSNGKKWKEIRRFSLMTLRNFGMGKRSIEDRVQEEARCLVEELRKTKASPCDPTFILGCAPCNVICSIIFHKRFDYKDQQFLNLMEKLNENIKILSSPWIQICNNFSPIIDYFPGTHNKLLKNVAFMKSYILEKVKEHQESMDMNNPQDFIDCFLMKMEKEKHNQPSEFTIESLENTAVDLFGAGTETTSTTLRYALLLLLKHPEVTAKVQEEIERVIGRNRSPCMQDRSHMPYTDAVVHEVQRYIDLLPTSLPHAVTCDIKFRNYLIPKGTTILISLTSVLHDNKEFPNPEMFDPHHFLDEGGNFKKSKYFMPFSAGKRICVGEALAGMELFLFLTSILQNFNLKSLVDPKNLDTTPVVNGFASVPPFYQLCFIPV
Cytochrome P450 3A4, sequence (P08684 whole entry): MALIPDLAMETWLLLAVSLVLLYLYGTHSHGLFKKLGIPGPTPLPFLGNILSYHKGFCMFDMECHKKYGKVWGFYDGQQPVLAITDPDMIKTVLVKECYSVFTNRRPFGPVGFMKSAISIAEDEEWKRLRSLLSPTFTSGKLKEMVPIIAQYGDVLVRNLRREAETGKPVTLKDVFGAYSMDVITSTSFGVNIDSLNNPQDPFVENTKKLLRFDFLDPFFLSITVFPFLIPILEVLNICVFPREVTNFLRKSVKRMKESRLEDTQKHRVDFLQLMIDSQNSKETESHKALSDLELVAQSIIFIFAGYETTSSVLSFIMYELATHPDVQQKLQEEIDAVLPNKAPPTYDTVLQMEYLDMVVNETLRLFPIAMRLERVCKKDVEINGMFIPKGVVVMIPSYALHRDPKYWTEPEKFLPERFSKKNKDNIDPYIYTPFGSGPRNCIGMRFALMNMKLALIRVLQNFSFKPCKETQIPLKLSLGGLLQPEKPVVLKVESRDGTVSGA
Cytochrome P450 2D6, sequence (P10635 whole entry): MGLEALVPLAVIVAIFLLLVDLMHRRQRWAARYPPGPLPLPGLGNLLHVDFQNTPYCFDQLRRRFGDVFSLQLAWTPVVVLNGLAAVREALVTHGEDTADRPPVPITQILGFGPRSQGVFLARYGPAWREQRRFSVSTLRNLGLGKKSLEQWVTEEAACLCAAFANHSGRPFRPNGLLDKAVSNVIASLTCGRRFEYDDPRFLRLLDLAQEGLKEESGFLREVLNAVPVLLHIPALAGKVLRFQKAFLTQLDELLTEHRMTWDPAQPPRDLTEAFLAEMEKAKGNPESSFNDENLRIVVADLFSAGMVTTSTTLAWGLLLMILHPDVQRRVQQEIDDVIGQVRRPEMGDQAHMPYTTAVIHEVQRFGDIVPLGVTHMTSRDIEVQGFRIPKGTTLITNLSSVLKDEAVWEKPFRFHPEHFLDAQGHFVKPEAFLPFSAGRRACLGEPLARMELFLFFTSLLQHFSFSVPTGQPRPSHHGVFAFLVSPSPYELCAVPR

Row | Compound | pIC50 (Glucocorticoid receptor) | pIC50 (Androgen receptor) | Stability (Liver microsomes [1]) [%] | Stability (Liver microsomes [2]) [%] | inhibition (INH) (Cytochrome P450 3A4) [%] | inhibition (INH) (Cytochrome P450 2C9) [%] | inhibition (INH) (Cytochrome P450 2D6) [%] | solubility [3] [µM] | pIC50 [4] | pIC50 (Cytochrome P450 3A4) | pIC50 (Cytochrome P450 2C9) | pIC50 (Cytochrome P450 2D6)
1 | CCCC1=C(C(=O)OC)C(c2ccccc2Cl)C(C#N)=C(C)N1 (stereo not given) | 5.80 | 6.52 | 36 | 13 | 71 | 83 | 19 | < 5 | 7.19 |  |  | 
2 | COC(=O)C1=C(Cn2cncn2)NC(C)=C(C#N)C1c1ccc(F)cc1Cl (stereo not given) | 5.54 | 5.34 | 9 | 34 |  |  |  | > 5 | 6.91 | 6.10 | 7.00 | < 5.00
3 | COC(=O)C1=C(Cn2ccnc2)NC(C)=C(C#N)C1c1ccc(F)cc1Cl (stereo not given) | 5.66 | 5.41 | 8 | 64 |  |  |  | 5 (≈ 1.93 µg/mL) | 8.05 | 6.70 | 6.00 | < 5.00

Further lines, results first:

Row | pIC50 (Glucocorticoid receptor) | pIC50 (Androgen receptor) | Stability (Liver microsomes [1]) [%] | Stability (Liver microsomes [2]) [%] | inhibition (INH) (Cytochrome P450 3A4) [%] | inhibition (INH) (Cytochrome P450 2C9) [%] | inhibition (INH) (Cytochrome P450 2D6) [%] | solubility [3] [µM] | pIC50 [4] | pIC50 (Cytochrome P450 3A4) | pIC50 (Cytochrome P450 2C9) | pIC50 (Cytochrome P450 2D6) | Compound
4 | 5.89 | 5.57 | 3 | 60 |  |  |  | 31 (≈ 12.1 µg/mL) | 7.19 | 5.92 | 5.72 | < 5.00 | COC(=O)C1=C(Cn2cnnn2)NC(C)=C(C#N)C1c1ccc(F)cc1Cl (stereo not given)
5 | 5.29 | 6.52 | 37 | 14 | 40 | 44 | 0 | 10 (≈ 3.21 µg/mL) | 7.04 |  |  |  | COC(=O)C1=C(C)NC(C)=C(C#N)C1c1ccc(F)cc1Cl (stereo not given)
